# Test results as given in patent publication US20250257064A1, “TRIFLUOROMETHYL-SUBSTITUTED SULFONAMIDE AS BCL-2-SELECTIVE INHIBITOR” (Chia Tai Tianqing Pharmaceutical Group Co., Ltd., priority 2018, published 2025).
# Tests used:
# RS4;11 cells = assay: Inhibitory effect on proliferation of RS4;11 cells (CCK-8); assay type: cell-based, human; details: Homo sapiens, RS4-11, 72 h
# Description: Experimental Example 2: Inhibitory Effect of Compounds on Proliferation of RS4;11 Cells
# RS4;11 cells (from Nanjing Cobioer) in logarithmic growth phase and good cell condition were added to a centrifuge tube and centrifuged at 1500 rpm for 3 min in a low speed centrifuge. The supernatant was discarded, and 5 mL of complete medium (RPMI basic medium+10 wt % fetal bovine serum (FBS)) was added using a pipette for cell resuspension. The cells were counted using a cell counter, diluted with complete medium to a cell density of 2×10^5 cells/mL, and added with an equivalent amount of RPMI basic medium to adjust the serum concentration to 5% and the cell density to 1×10^5 cells/mL for plate seeding. The cells were seeded on a 96-well plate at 100 μL/well using a pipettor, and incubated in an incubator at 37° C., 5% CO2 with saturated humidity. After 24 h of incubation, compounds were loaded using a nanoliter pipettor, 2 duplicate wells were set for each concentration, and cells without compound were used as negative controls. […] Inhibition rate (%)=(mean value of negative control group—mean value of experimental group)/(mean value of negative control group—mean value of blank group)×100%. A dose-response curve was fitted by four-parameter analysis, with the logarithm of compound concentration serving as abscissa and inhibition rate serving as ordinate, so that IC50 was calculated (FIG. 2).
# BCL-XL/BAK = target: T1, BCL-XL/BAK (Homo sapiens, UniProt Q07817); assay: Screening on inhibitory activity for BCL-XL/BAK binding (Cisbio HTRF kit)
# T1 construct: purchased Cisbio
# Description: 1.2 Screening on Inhibitory Activity for BCL-XL/BAK Binding
# 300 nM Tag1-BCL-XL protein stock solution and 10 μM Tag2-BAK protein stock solution were diluted to 2 nM and 80 nM respectively with dilution buffer in kit (model: BCL-XL/BAK (BH3) BINDING ASSAY KITS, from Cisbio). 5 μL of Tag1-BCL-XL protein diluent was added to each well, then different compounds dissolved with DMSO were added to the wells with a nanoliter pipettor, allowing the final compound concentrations to be 2000 nM to 0.488 nM (4-fold gradient for 7 concentrations in total). Blank control wells (without enzyme) and negative control wells (with enzyme, plus vehicle DMSO) were set, and 2 replicate wells were set. Finally, 5 μL of Tag2-BAK protein diluent was added to each well, and the mixture was mixed well by centrifugation and incubated at 25° C. for 15 min. 100× anti-Tag1-Eu^3+ and 100× anti-Tag2-XL665 were both diluted to 1× working concentration with the detection buffer in the kit. Anti-Tag1-Eu^3+ and anti-Tag2-XL665 were mixed well in a 1:1 ratio, and the mixture was added to wells at 5 µL/well, and incubated at 25° C. for 2 h or more. The plate was read using a PE Envision multi-functional microplate reader (excitation: […], emission: 665 nm) and IC50 (shown in table 1) was calculated by four-parameter fitting.
# BCL-2/BAK = target: T2, BCL-2/BAK (Homo sapiens, UniProt P10415); assay: Screening on inhibitory activity for BCL-2/BAK binding (Cisbio HTRF kit)
# T2 construct: purchased Cisbio
# Description: 1.1 Screening on Inhibitory Activity for BCL-2/BAK Binding
# 500 nM Tag1-BCL-2 protein stock solution and 20 μM Tag2-BAK protein stock solution were diluted to 5 nM and 120 nM respectively with dilution buffer in kit (model: BCL-2/BAK (BH3) BINDING ASSAY KITS, from Cisbio). 5 μL of Tag1-BCL-2 protein diluent was added to each well, then different compounds dissolved with DMSO were added to the wells with a nanoliter pipettor, allowing the final compound concentrations to be 200 nM to 0.0488 nM (4-fold gradient for 7 concentrations in total). Blank control wells (without enzyme) and negative control wells (with enzyme, plus vehicle DMSO) were set, and 2 replicate wells were set. Finally, 5 μL of Tag2-BAK protein diluent was added to each well, and the mixture was mixed well by centrifugation and incubated at 25° C. for 15 min. 100× anti-Tag1-Eu^3+ and 100× anti-Tag2-XL665 were both diluted to 1× working concentration with the detection buffer in the kit. Anti-Tag1-Eu^3+ and anti-Tag2-XL665 were mixed well in a 1:1 ratio, and the mixture was added to wells at 5 μL/well, and incubated at 25° C. for 2 h or more. The plate was read using a PE Envision multi-functional microplate reader (excitation: […], emission: 665 nm) and IC50 (shown in table 1) was calculated by four-parameter fitting.
# T2 sequence (P10415 whole entry, species assumed): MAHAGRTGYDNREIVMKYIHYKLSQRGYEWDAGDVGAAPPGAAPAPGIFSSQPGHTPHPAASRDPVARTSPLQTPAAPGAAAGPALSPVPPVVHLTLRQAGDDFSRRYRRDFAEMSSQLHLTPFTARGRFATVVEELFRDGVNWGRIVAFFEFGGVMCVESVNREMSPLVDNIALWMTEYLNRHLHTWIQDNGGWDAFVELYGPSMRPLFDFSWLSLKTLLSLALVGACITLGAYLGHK
# T1 sequence (Q07817 whole entry, species assumed): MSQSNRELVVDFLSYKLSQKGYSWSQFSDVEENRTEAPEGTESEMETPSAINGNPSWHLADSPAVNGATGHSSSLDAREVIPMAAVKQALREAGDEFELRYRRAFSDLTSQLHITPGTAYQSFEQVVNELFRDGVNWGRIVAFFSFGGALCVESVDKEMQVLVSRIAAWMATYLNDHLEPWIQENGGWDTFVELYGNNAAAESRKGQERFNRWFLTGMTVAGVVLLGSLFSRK
Compound,IC50 (RS4;11 cells),IC50 (BCL-XL/BAK),IC50 (BCL-2/BAK)
"CC1(C)CCC(CN2CCN(c3ccc(C(=O)NS(=O)(=O)c4ccc(NCC5CCCOC5)c([N+](=O)[O-])c4)c(Oc4cnc5[nH]ccc5c4)c3)CC2)=C(c2ccc(C(F)(F)F)cc2Cl)C1 (stereo not drawn) [Compound 13-1, 4-(4-{[2-(2-chloro-4-trifluoromethylphenyl)-4,4-dimethylcyclohex-1-enyl]methyl}-piperazin-1-yl)-N-({3-nitro-4-[(tetrahydro-2H-pyran-3-ylmethyl)amino]phenyl}sulfonyl)-2-(1H-pyrrolo[2,3-b]pyridin-5-yloxy)-benzamide]",8.1 nM,387 nM,3.6 nM
CC1(C)CCC(CN2CCN(c3ccc(C(=O)NS(=O)(=O)c4ccc(NCC5CCCN(S(C)(=O)=O)C5)c([N+](=O)[O-])c4)c(Oc4cnc5[nH]ccc5c4)c3)CC2)=C(c2ccc(C(F)(F)F)cc2Cl)C1 (stereo not drawn) [Compound 15-1],7.2 nM,729 nM,3.83 nM
CC(C)C(=O)N1CCC(CNc2ccc(S(=O)(=O)NC(=O)c3ccc(N4CCN(CC5=C(c6ccc(C(F)(F)F)cc6Cl)CC(C)(C)CC5)CC4)cc3Oc3cnc4[nH]ccc4c3)cc2[N+](=O)[O-])CC1 [Compound 23-1],10 nM,302 nM,5.1 nM
"CC1(C)CCC(CN2CCN(c3ccc(C(=O)NS(=O)(=O)c4ccc(NC[C@H]5CCCO5)c([N+](=O)[O-])c4)c(Oc4cnc5[nH]ccc5c4)c3)CC2)=C(c2ccc(C(F)(F)F)cc2Cl)C1 [Compound 38-1, (R)-4-(4-{[2-(2-chloro-4-trifluoromethylphenyl)-4,4-dimethylcyclohex-1-enyl]methyl}-piperazin-1-yl)-N-({3-nitro-4-[((tetrahydrofuran-2-yl)methyl)amino]phenyl}sulfonyl)-2-(1H-pyrrolo[2,3-b]pyridin-5-yloxy)-benzamide]",6.6 nM,187 nM,2.81 nM
"CC1(C)CCC(CN2CCN(c3ccc(C(=O)NS(=O)(=O)c4ccc(NC[C@H]5CCCOC5)c([N+](=O)[O-])c4)c(Oc4cnc5[nH]ccc5c4)c3)CC2)=C(c2ccc(C(F)(F)F)cc2Cl)C1 [Compound 42-1, (R)-4-(4-{[2-(2-chloro-4-trifluoromethylphenyl)-4,4-dimethylcyclohex-1-enyl]methyl}-piperazin-1-yl)-N-({3-nitro-4-[((tetrahydropyran-3-yl)methyl)amino]phenyl}sulfonyl)-2-(1H-pyrrolo[2,3-b]pyridin-5-yloxy)-benzamide]",6.8 nM,220 nM,2.81 nM
"CC1(C)CCC(CN2CCN(c3ccc(C(=O)NS(=O)(=O)c4ccc(NCC5CN(C=O)CCO5)c([N+](=O)[O-])c4)c(Oc4cnc5[nH]ccc5c4)c3)CC2)=C(c2ccc(C(F)(F)F)cc2Cl)C1 (stereo not drawn) [Compound 48-1, 4-(4-{[2-(2-chloro-4-trifluoromethylphenyl)-4,4-dimethylcyclohex-1-enyl]methyl}-piperazin-1-yl)-N-({3-nitro-4-[((N-formylmorpholin-2-yl)methyl)amino]phenyl}sulfonyl)-2-(1H-pyrrolo[2,3-b]pyridin-5-yloxy)-benzamide]",1.4 nM,118 nM,1.4 nM
"CC1(C)CCC(CN2CCN(c3ccc(C(=O)NS(=O)(=O)c4ccc(NCC5CN(C(=O)C(F)(F)F)CCO5)c([N+](=O)[O-])c4)c(Oc4cnc5[nH]ccc5c4)c3)CC2)=C(c2ccc(C(F)(F)F)cc2Cl)C1 (stereo not drawn) [Compound 52-1, 4-(4-{[2-(2-chloro-4-trifluoromethylphenyl)-4,4-dimethylcyclohex-1-enyl]methyl}-piperazin-1-yl)-N-({3-nitro-4-[((4-(2,2,2-trifluoroacetyl)morpholin-2-yl)methyl)amino]phenyl}sulfonyl)-2-(1H-pyrrolo[2,3-b]pyridin-5-yloxy)-benzamide]",0.9 nM,175 nM,3.9 nM
"COCC(=O)N1CCCC(CNc2ccc(S(=O)(=O)NC(=O)c3ccc(N4CCN(CC5=C(c6ccc(C(F)(F)F)cc6Cl)CC(C)(C)CC5)CC4)cc3Oc3cnc4[nH]ccc4c3)cc2[N+](=O)[O-])C1 (stereo not drawn) [Compound 58-1, 4-(4-{[2-(2-chloro-4-trifluoromethylphenyl)-4,4-dimethylcyclohex-1-enyl]methyl}-piperazin-1-yl)-N-({3-nitro-4-[((1-(2-methoxyacetyl)piperidin-3-yl)methyl)amino]phenyl}sulfonyl)-2-(1H-pyrrolo[2,3-b]pyridin-5-yloxy)-benzamide]",5.3 nM,145 nM,2.35 nM

# Continued, values first:
IC50 (RS4;11 cells),IC50 (BCL-XL/BAK),IC50 (BCL-2/BAK),Compound
8.6 nM,338 nM,5.1 nM,"CC1(C)CCC(CN2CCN(c3ccc(C(=O)NS(=O)(=O)c4ccc(NCC5CCCCO5)c([N+](=O)[O-])c4)c(Oc4cnc5[nH]ccc5c4)c3)CC2)=C(c2ccc(C(F)(F)F)cc2Cl)C1 (stereo not drawn) [Compound 14-1, 4-(4-{[2-(2-chloro-4-trifluoromethylphenyl)-4,4-dimethylcyclohex-1-enyl]methyl}-piperazin-1-yl)-N-({3-nitro-4-[(4-tetrahydro-2H-pyran-2-ylmethyl)amino]phenyl}sulfonyl)-2-(1H-pyrrolo[2,3-b]pyridin-5-yloxy)-benzamide]"
7.8 nM,653 nM,3.09 nM,"CC(=O)N1CCOC(CCNc2ccc(S(=O)(=O)NC(=O)c3ccc(N4CCN(CC5=C(c6ccc(C(F)(F)F)cc6Cl)CC(C)(C)CC5)CC4)cc3Oc3cnc4[nH]ccc4c3)cc2[N+](=O)[O-])C1 (stereo not drawn) [Compound 16-1, 4-(4-{[2-(2-chloro-4-trifluoromethylphenyl)-4,4-dimethylcyclohex-1-enyl]methyl}-piperazin-1-yl)-N-({3-nitro-4-[(2-(4-acetylmorpholin-2-yl)ethyl)amino]phenyl}sulfonyl)-2-(1H-pyrrolo[2,3-b]pyridin-5-yloxy)-benzamide]"
9.6 nM,232 nM,1.61 nM,"CC1(C)CCC(CN2CCN(c3ccc(C(=O)NS(=O)(=O)c4ccc(NC[C@H]5CCOC5)c([N+](=O)[O-])c4)c(Oc4cnc5[nH]ccc5c4)c3)CC2)=C(c2ccc(C(F)(F)F)cc2Cl)C1 [Compound 35-1, (R)-4-(4-{[2-(2-chloro-4-trifluoromethylphenyl)-4,4-dimethylcyclohex-1-enyl]methyl}-piperazin-1-yl)-N-({3-nitro-4-[((tetrahydrofuran-3-yl)methyl)amino]phenyl}sulfonyl)-2-(1H-pyrrolo[2,3-b]pyridin-5-yloxy)-benzamide]"
4.3 nM,211 nM,2.59 nM,"CC1(C)CCC(CN2CCN(c3ccc(C(=O)NS(=O)(=O)c4ccc(NCC5CN(C(=O)C(C)(C)C)CCO5)c([N+](=O)[O-])c4)c(Oc4cnc5[nH]ccc5c4)c3)CC2)=C(c2ccc(C(F)(F)F)cc2Cl)C1 (stereo not drawn) [Compound 50-1, 4-(4-{[2-(2-chloro-4-trifluoromethylphenyl)-4,4-dimethylcyclohex-1-enyl]methyl}-piperazin-1-yl)-N-({3-nitro-4-[((4-pivaloylmorpholin-2-yl)methyl)amino]phenyl}sulfonyl)-2-(1H-pyrrolo[2,3-b]pyridin-5-yloxy)-benzamide]"
